In general, Papp refers to a coefficient for how fast a substance crosses the barrier. A high value points to ready permeation.

This data set in a line: in vitro. The settings on record: human, Caco-2.
`COc1cc(C(C)C)c(Oc2cnc(N)nc2N)cc1S(N)(=O)=O` [GEFAPIXANT] gave a Papp of 0.7 ×10⁻⁶ cm/s.

Take `COc1cc(C(C)C)c(Oc2cnc(N)nc2N)cc1I`: the Papp is 30.6 ×10⁻⁶ cm/s.

In turn, `COc1ccc(OC)c(CCn2cnc3sc4c(c3c2=O)CCC(C(=O)N(C)C)C4)c1` (stereo not drawn) came in with a Papp of 46.8 ×10⁻⁶ cm/s.

The values above are taken from ChEMBL document CHEMBL4425152, “New P2X3 receptor antagonists. Part 1: Discovery and optimization of tricyclic compounds” (Bioorg Med Chem Lett, 2016).
